Measured values taken from PubChem BioAssay AID248 (DTP/NCI, 2004).
“And” between values parts separate entries of the source, which are not always exact repeats. Equal values may be shown once. Toxic doses and inconclusive results are not listed.

System: L1210 leukemia ip in BDF1 mice, survival T/C
Test: NCI In Vivo Anticancer Drug Screen. Data for tumor model L1210 Leukemia (intraperitoneal) in B6D2F1 (BDF1) mice
Settings: higher = longer survival
In short: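 Survival endpoint. Drug-treated group vs vehicle group, expressed as T divided by C. Tumor passaged by transplantation.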

[1] = endpoint: mean survival time, dose: 100.0 mg/kg/injection, schedule: Q01DX001 (ip), vehicle: carboxymethylcellulose (CMC)
[2] = endpoint: mean survival time, dose: 200.0 mg/kg/injection, schedule: Q01DX001 (ip), vehicle: carboxymethylcellulose (CMC)
[3] = endpoint: mean survival time, dose: 400.0 mg/kg/injection, schedule: Q01DX001 (ip), vehicle: carboxymethylcellulose (CMC)
[4] = endpoint: mean survival time, dose: 100.0 mg/kg/injection, schedule: Q01DX009 (ip), vehicle: saline with Tween-80
[5] = endpoint: mean survival time, dose: 400.0 mg/kg/injection, schedule: Q01DX009 (ip), vehicle: saline with Tween-80
[6] = endpoint: mean survival time, dose: 100.0 mg/kg/injection, schedule: Q01DX009 (ip), vehicle: Klucel (hydroxypropylcellulose) (HPC)
[7] = endpoint: mean survival time, dose: 200.0 mg/kg/injection, schedule: Q01DX009 (ip), vehicle: Klucel (hydroxypropylcellulose) (HPC)
[8] = endpoint: mean survival time, dose: 100.0 mg/kg/injection, schedule: Q04DX003 (ip), vehicle: Klucel (hydroxypropylcellulose) (HPC)

O=C(NCCN1CCOCC1)Nc1cccc2c1CCCC2
T/C (endpoint: mean survival time, dose: 100.0 mg/kg/injection, schedule: Q04DX002 (ip), vehicle: saline with Tween-80): 94 % of control
T/C (endpoint: mean survival time, dose: 200.0 mg/kg/injection, schedule: Q04DX002 (ip), vehicle: saline with Tween-80): 108 % of control
T/C (endpoint: mean survival time, dose: 400.0 mg/kg/injection, schedule: Q04DX002 (ip), vehicle: saline with Tween-80): 116 % of control

Oc1ccc(/C=N/Nc2nnc(N/N=C/c3ccc(O)cc3O)c3ccccc23)c(O)c1
T/C (endpoint: mean survival time, dose: 2.5 mg/kg/injection, schedule: Q01DX015 (ip), vehicle: carboxymethylcellulose (CMC)): 97 % of control
T/C (endpoint: mean survival time, dose: 5.0 mg/kg/injection, schedule: Q01DX009 (ip), vehicle: saline): 104 % of control
T/C (endpoint: mean survival time, dose: 5.0 mg/kg/injection, schedule: Q01DX015 (ip), vehicle: carboxymethylcellulose (CMC)): 98 % of control
T/C (endpoint: mean survival time, dose: 10.0 mg/kg/injection, schedule: Q01DX009 (ip), vehicle: saline): 109 % of control
T/C (endpoint: mean survival time, dose: 10.0 mg/kg/injection, schedule: Q01DX015 (ip), vehicle: carboxymethylcellulose (CMC)): 110 % of control
T/C (endpoint: mean survival time, dose: 19.0 mg/kg/injection, schedule: Q01DX015 (ip), vehicle: carboxymethylcellulose (CMC)): 120 % of control
T/C (endpoint: mean survival time, dose: 20.0 mg/kg/injection, schedule: Q01DX009 (ip), vehicle: saline): 106 % of control
T/C (endpoint: mean survival time, dose: 32.0 mg/kg/injection, schedule: Q01DX015 (ip), vehicle: carboxymethylcellulose (CMC)): 114 % of control
T/C (endpoint: mean survival time, dose: 50.0 mg/kg/injection, schedule: Q01DX001 (ip), vehicle: saline): 98 % of control
T/C [1]: 111 % of control
T/C (endpoint: mean survival time, dose: 100.0 mg/kg/injection, schedule: Q01DX001 (ip), vehicle: saline): 97 % of control
T/C [2]: 121 % of control
T/C (endpoint: mean survival time, dose: 200.0 mg/kg/injection, schedule: Q01DX001 (ip), vehicle: saline): 106 % of control
T/C (endpoint: mean survival time, dose: 600.0 mg/kg/injection, schedule: Q01DX001 (ip), vehicle: carboxymethylcellulose (CMC)): 117 % of control

CCCCCCCCCCOc1ccc(C2=C(c3ccccc3)C(=O)C(c3ccccc3)=C2c2ccccc2)cc1
T/C [1]: 100 % of control
T/C [2]: 105 % of control
T/C [3]: 94 % of control

CCNc1nc(Cl)nc(N(CC)CC)n1
T/C [4]: 91 % of control
T/C (endpoint: mean survival time, dose: 200.0 mg/kg/injection, schedule: Q01DX009 (ip), vehicle: saline with Tween-80): 98 % of control
T/C [5]: 89 % of control

COc1cc(C=O)ccc1OC(=O)Nc1cccc(C(C)=O)c1
T/C [6]: 96 % of control
T/C [7]: 92 % of control

N#CCC1COc2ccccc2O1 (stereo unspecified)
T/C [1]: 92 % of control
T/C [2]: 97 % of control
T/C [3]: 100 % of control

COc1ccc(CN2CCCN(Cc3ccc(OC)cc3)C2c2ccncc2C)cc1
T/C (endpoint: mean survival time, dose: 100.0 mg/kg/injection, schedule: Q01DX001 (ip), vehicle: acetone): 96 % of control
T/C (endpoint: mean survival time, dose: 200.0 mg/kg/injection, schedule: Q01DX001 (ip), vehicle: acetone): 105 % of control
T/C (endpoint: mean survival time, dose: 400.0 mg/kg/injection, schedule: Q01DX001 (ip), vehicle: acetone): 96 % of control

CCOC(=O)c1cc(-c2ccccc2)c(-c2ccccc2)c(-c2ccccc2)c1-c1ccccc1
T/C (endpoint: mean survival time, dose: 50.0 mg/kg/injection, schedule: Q01DX001 (ip), vehicle: carboxymethylcellulose (CMC)): 97 % of control
T/C [1]: 100 % of control
T/C [2]: 97 % of control

CCCCN(C)/N=N/c1[nH]ncc1C(=O)OCC
T/C (endpoint: mean survival time, dose: 52.0 mg/kg/injection, schedule: Q01DX009 (ip), vehicle: other): 119 % of control
T/C (endpoint: mean survival time, dose: 78.0 mg/kg/injection, schedule: Q01DX009 (ip), vehicle: other): 119 % of control
T/C (endpoint: mean survival time, dose: 266.0 mg/kg/injection, schedule: Q01DX007 (ip), vehicle: saline): 154 % of control
T/C (endpoint: mean survival time, dose: 266.0 mg/kg/injection, schedule: Q01DX009 (ip), vehicle: other): 168 % of control
T/C (endpoint: mean survival time, dose: 400.0 mg/kg/injection, schedule: Q01DX007 (ip), vehicle: saline): 174 % of control

CC(C)=CCC(OC(=O)C=C(C)C)C1=CC(=O)c2c(O)ccc(O)c2C1=O (stereo unspecified)
T/C (endpoint: mean survival time, dose: 6.25 mg/kg/injection, schedule: Q01DX009 (ip), vehicle: saline): 93 % of control
T/C (endpoint: mean survival time, dose: 6.25 mg/kg/injection, schedule: Q04DX003 (ip), vehicle: saline): 98 % of control
T/C (endpoint: mean survival time, dose: 12.5 mg/kg/injection, schedule: Q01DX009 (ip), vehicle: saline): 92 % of control
T/C (endpoint: mean survival time, dose: 12.5 mg/kg/injection, schedule: Q04DX003 (ip), vehicle: saline): 101 % of control
T/C (endpoint: mean survival time, dose: 25.0 mg/kg/injection, schedule: Q04DX003 (ip), vehicle: saline): 104 % of control

[Co+2].[N-]=Cc1ccccc1O.[N-]=Cc1ccccc1O
T/C (endpoint: mean survival time, dose: 25.0 mg/kg/injection, schedule: Q04DX003 (ip), vehicle: Klucel (hydroxypropylcellulose) (HPC)): 110 % of control
T/C (endpoint: mean survival time, dose: 50.0 mg/kg/injection, schedule: Q04DX003 (ip), vehicle: Klucel (hydroxypropylcellulose) (HPC)): 113 % of control
T/C [8]: 99 % of control and 118 % of control

Cc1cn(C2C=CC(CO)O2)c(=O)[nH]c1=O (stereo unspecified)
T/C [4]: 89 % of control
T/C [5]: 90 % of control

O=C(N[C@H](CO)[C@H](O)c1ccc([N+](=O)[O-])cc1)C(Cl)Cl
T/C (endpoint: mean survival time, dose: 316.0 mg/kg/injection, schedule: Q01DX001 (ip), vehicle: carboxymethylcellulose (CMC)): 106 % of control
T/C (endpoint: mean survival time, dose: 475.0 mg/kg/injection, schedule: Q01DX001 (ip), vehicle: carboxymethylcellulose (CMC)): 115 % of control
T/C (endpoint: mean survival time, dose: 720.0 mg/kg/injection, schedule: Q01DX001 (ip), vehicle: carboxymethylcellulose (CMC)): 113 % of control
T/C (endpoint: median survival time, dose: 274.4 mg/kg/injection, schedule: Q01DX001 (ip), vehicle: saline): 105 % of control
T/C (endpoint: median survival time, dose: 392.0 mg/kg/injection, schedule: Q01DX001 (ip), vehicle: saline): 100 % of control and 101 % of control
T/C (endpoint: median survival time, dose: 560.0 mg/kg/injection, schedule: Q01DX001 (ip), vehicle: saline): 93 % of control and 94 % of control and 95 % of control
T/C (endpoint: median survival time, dose: 560.0 mg/kg/injection, schedule: Q03DX001 (ip), vehicle: saline): 88 % of control
T/C (endpoint: median survival time, dose: 800.0 mg/kg/injection, schedule: Q01DX001 (ip), vehicle: saline): 99 % of control and 100 % of control and 102 % of control
T/C (endpoint: median survival time, dose: 800.0 mg/kg/injection, schedule: Q03DX001 (ip), vehicle: saline): 100 % of control

O=S(=O)(OCC#CCOS(=O)(=O)c1cccs1)c1cccs1
T/C (endpoint: mean survival time, dose: 6.2 mg/kg/injection, schedule: Q01DX009 (ip), vehicle: Klucel (hydroxypropylcellulose) (HPC)): 101 % of control
T/C (endpoint: mean survival time, dose: 12.5 mg/kg/injection, schedule: Q01DX009 (ip), vehicle: Klucel (hydroxypropylcellulose) (HPC)): 111 % of control
T/C (endpoint: mean survival time, dose: 25.0 mg/kg/injection, schedule: Q01DX009 (ip), vehicle: Klucel (hydroxypropylcellulose) (HPC)): 105 % of control
T/C (endpoint: mean survival time, dose: 100.0 mg/kg/injection, schedule: Q01DX001 (ip), vehicle: Klucel (hydroxypropylcellulose) (HPC)): 109 % of control
T/C [8]: 97 % of control
T/C (endpoint: mean survival time, dose: 200.0 mg/kg/injection, schedule: Q01DX001 (ip), vehicle: Klucel (hydroxypropylcellulose) (HPC)): 106 % of control
T/C (endpoint: mean survival time, dose: 200.0 mg/kg/injection, schedule: Q04DX003 (ip), vehicle: Klucel (hydroxypropylcellulose) (HPC)): 105 % of control
T/C (endpoint: mean survival time, dose: 400.0 mg/kg/injection, schedule: Q01DX001 (ip), vehicle: Klucel (hydroxypropylcellulose) (HPC)): 103 % of control

O=P(O)(N(CCCl)CCCl)N1CCN(Cc2ccccc2)CC1
T/C (endpoint: mean survival time, dose: 10.0 mg/kg/injection, schedule: Q01DX Z (ip), vehicle: other): 95 % of control
T/C (endpoint: mean survival time, dose: 30.0 mg/kg/injection, schedule: Q01DX Z (ip), vehicle: other): 105 % of control
T/C (endpoint: mean survival time, dose: 100.0 mg/kg/injection, schedule: Q01DX Z (ip), vehicle: other): 108 % of control

Nc1nc(N)c(CCCCc2ccccc2)c(Cc2ccccc2)n1
T/C (endpoint: mean survival time, dose: 50.0 mg/kg/injection, schedule: Q01DX009 (ip), vehicle: Klucel (hydroxypropylcellulose) (HPC)): 98 % of control
T/C [6]: 106 % of control
T/C [7]: 98 % of control

CC(C)CN(C)N=Nc1ccc(C(=N)N)cc1
T/C (endpoint: mean survival time, dose: 5.0 mg/kg/injection, schedule: Q01DX001 (ip), vehicle: carboxymethylcellulose (CMC)): 94 % of control
T/C (endpoint: mean survival time, dose: 10.0 mg/kg/injection, schedule: Q01DX001 (ip), vehicle: carboxymethylcellulose (CMC)): 97 % of control
T/C (endpoint: mean survival time, dose: 20.0 mg/kg/injection, schedule: Q01DX001 (ip), vehicle: carboxymethylcellulose (CMC)): 97 % of control
T/C (endpoint: mean survival time, dose: 40.0 mg/kg/injection, schedule: Q01DX001 (ip), vehicle: carboxymethylcellulose (CMC)): 92 % of control
T/C (endpoint: mean survival time, dose: 80.0 mg/kg/injection, schedule: Q01DX001 (ip), vehicle: carboxymethylcellulose (CMC)): 91 % of control
T/C [1]: 105 % of control

C(=N\n1cnc2c(SCc3ccccc3)ncnc21)/c1ccccc1
T/C (endpoint: mean survival time, dose: 100.0 mg/kg/injection, schedule: Q01DX001 (ip), vehicle: other): 93 % of control
T/C (endpoint: mean survival time, dose: 200.0 mg/kg/injection, schedule: Q01DX001 (ip), vehicle: other): 91 % of control
T/C (endpoint: mean survival time, dose: 400.0 mg/kg/injection, schedule: Q01DX001 (ip), vehicle: other): 91 % of control
